The structures appear in SMILES notation. Bounds are passed on as bounds.

The term EC50 denotes the concentration at which the effect is half-maximal. Read a high EC50 as a less potent agent.

Assay [1] is described as follows: Antiviral activity against HCMV (AD 169) in HFF cells assessed by cytopathic effect inhibition assay; 5.2/90. In general terms: Protection from cytopathic effect is a common read-out in antiviral testing.
A short description of assay [2]: Ratio of antiviral activity of HSV-1 to the ratio of cytotoxicity of HFF (EC50/CC50) against cytopathic effect inhibition assay; >184/>184. Format: functional.
A short description of assay [3]: Ratio of antiviral activity of HSV-1 to the ratio of cytotoxicity of Vero (EC50/CC50) against cytopathic effect inhibition assay in CEM cells; 31/91. Format: functional.
The nature of assay [4]: Antitumor activity against normal cells (fibroblasts) at 500 ug/disk in disk diffusion assay; Value ranges from 0-100. Type of assay: functional. In general terms: Agar diffusion results depend on both activity and mobility in agar.
Assay [5] in a line: Ratio of antiviral activity of HSV-1 to the ratio of cytotoxicity of BSC-1 (EC50/CC50) against KB cells; 15/>100. Type of assay: functional.
Assay [6] can be described thus: Ratio of antiviral activity of VZV to the ratio of cytotoxicity of HFF (EC50/CC50) against cytopathic effect inhibition assay; 5.0/111. Type of assay: functional.
Assay [7] in a line: Antiviral activity against HBV in 2.2.15 cells in HBV-DNA inhibition assay.
A short description of assay [8]: Antiviral activity against EBV in Daudi cells against viral capsid antigen immunofluorescence assay (VCA-IF).
The nature of assay [9]: Ratio of antiviral activity of HIV-1to the ratio of cytotoxicity of MT-2 (EC50/CC50) against cytopathic effect inhibition assay; 1/10. Type of assay: functional.
Assay [10] in a line: Antiviral activity of HCMV (Towne)in HFF cells by plaque reduction assay. On the technique in general: In a plaque reduction assay, fewer plaques than in the control indicate reduced infectivity or spread.
In another assay the test system is L1210. The experiment in a line: Antitumor activity against leukemia L1210 at 500 ug/disk in disk diffusion assay. Format: functional, Mus musculus.
The nature of assay [11]: Ratio of antiviral activity of HSV-2 to the ratio of cytotoxicity of HFF (EC50/CC50) against cytopathic effect inhibition assay; >184/>184. Format: functional.
Assay [12] in a line: Ratio of antiviral activity of HSV-2 to the ratio of cytotoxicity of Vero (EC50/CC50) against cytopathic effect inhibition assay in CEM cells; 40/91. Format: functional.
In assay [13] the test system is HCT-15. The experiment in a line: Antitumor activity against human HCT15 to multiple drug-resistant human colon tumor at 500 ug/disk in disk diffusion assay; Value ranges from 300-400. Format: functional.
The nature of assay [14]: Antiviral activity against EBV in Daudi cells (EC50) against viral capsid antigen immunofluorescence assay (VCA-IF); 1.0/>108.
Assay [15] can be described thus: Ratio of antiviral activity of HSV-1 to the ratio of cytotoxicity of Vero (EC50/CC50) against cytopathic effect inhibition assay in CEM cells; >1/<10. Type of assay: functional.
A short description of assay [16]: Ratio of antiviral activity of HSV-1 to the ratio of cytotoxicity of HFF (EC50/CC50) against cytopathic effect inhibition assay; <0.07/18. Format: functional.
The nature of assay [17]: Antiviral activity against HCMV (Towne) in HFF cells by plaque reduction assay.
Assay [18] in a line: Ratio of antiviral activity of HSV-2 to the ratio of cytotoxicity of HFF (EC50/CC50) against cytopathic effect inhibition assay; 1.1/18. Type of assay: functional.
Assay [19] concerns HCT-15. The experiment in a line: Antitumor activity against human HCT15 to multiple drug-resistant human colon tumor at 500 ug/disk in disk diffusion assay. Format: functional.
The nature of assay [20]: Ratio of antiviral activity of HBV to the ratio of cytotoxicity of 2.2.15 (EC50/CC50) in HBV-DNA inhibition assay against CEM cells; 0.01/0.3. Type of assay: functional, CCRF-CEM.
A short description of assay [21]: Ratio of antiviral activity of HSV-1 to the ratio of cytotoxicity of BSC-1 (EC50/CC50) against KB cells; 2.5/0.5. Format: functional.
A short description of assay [22]: Ratio of antiviral activity of VZV to the ratio of cytotoxicity of HFF (EC50/CC50) against cytopathic effect inhibition assay; 7.6/101. Type of assay: functional.
A short description of assay [23]: Antiviral activity against HCMV (AD 169) in HFF cells (EC50) against cytopathic effect inhibition assay.
A short description of assay [24]: Antiviral activity against HIV-1 in MT-2 cells (EC50) against cytopathic effect inhibition assay; 0.003/0.24.
Assay [25] is described as follows: Antiviral activity against HBV in 2.2.15 cells (EC50) in HBV-DNA inhibition assay against CEM cells; 2/>100.
The nature of assay [26]: Ratio of antiviral activity of VZV to the ratio of cytotoxicity of HFF (EC50/CC50) against cytopathic effect inhibition assay; 2.5/368. Type of assay: functional.
Assay [27] is described as follows: Ratio of antiviral activity of HSV-1 to the ratio of cytotoxicity of BSC-1 (EC50/CC50) against KB cells; 26/78. Type of assay: functional.
A short description of assay [28]: Ratio of antiviral activity of HSV-2 to the ratio of cytotoxicity of Vero (EC50/CC50) against cytopathic effect inhibition assay in CEM cells; 59/>100. Format: functional.
The nature of assay [29]: Antiviral activity against HIV-1 in MT-2 cells (EC50) against cytopathic effect inhibition assay; 0.75/32.
A short description of assay [30]: Antiviral activity against HCMV (AD 169) in HFF cells against cytopathic effect inhibition assay; 1.0/303.
Assay [31] is described as follows: Ratio of antiviral activity of HSV-2 to the ratio of cytotoxicity of HFF (EC50/CC50) against cytopathic effect inhibition assay; 80/433. Type of assay: functional.
Assay [32] is described as follows: Antiviral activity against EBV in Daudi cells (EC50) against viral capsid antigen immunofluorescence assay (VCA-IF); 3.2/368.
Assay [33] in a line: Ratio of antiviral activity of HSV-1 to the ratio of cytotoxicity of HFF (EC50/CC50) against cytopathic effect inhibition assay; >92/433. Format: functional.
Assay [34] can be described thus: Ratio of antiviral activity of HSV-1 to the ratio of cytotoxicity of Vero (EC50/CC50) against cytopathic effect inhibition assay in CEM cells; 28/>100. Format: functional.
The nature of assay [35]: Antiviral activity against HCMV (Towne) in HFF cells by plaque reduction assay. This is another data set of the same source.

For the compound `COC(=O)C(Cc1c[nH]c2ccccc12)NP(=O)(O)OCC1C/C1=C/n1cnc2c(N)ncnc21` (stereo unspecified), the EC50 in assay [1] is 5.2 µM; in assay [7], 0.49 µM; in [8], more than 18 µM; in [10], 1.5 µM. In addition, the Ratio in [2] was more than 184; in [3], 31; in assay [5] it was 15; in assay [6], 5; in assay [9] it was 1; in [11], more than 184. Further, the Ratio in assay [12] was 40. The Activity in [4] turned out to be 0 zone units; in the assay with L1210, 0 zone units; with HCT-15 [13], 300 zone units.

Take `COC(=O)C(C)NP(=O)(OCC1C/C1=C/n1cnc2c(N)ncnc21)Oc1ccccc1` (stereo unspecified): the EC50 in [14] amounted to 1 µM; in assay [17] it was 0.14 µM; in [23] it was 1.3 µM; in [24], 0.003 µM. Further, the Ratio in [15] was more than 1; in assay [16], less than 0.07; in assay [18] it was 1.1; in assay [20] it was 0.01; in assay [21], 2.5; in [22], 7.6. Moreover, the Activity with HCT-15 [19] is recorded as 200 ug disk-1.

As to `Nc1ncnc2c1ncn2/C=C1/CC1CO` (stereo unspecified), the EC50 worked out at 2 µM in assay [25]; 0.75 µM in assay [29]; 1 µM in assay [30]; 3.2 µM in assay [32]; 2.1 µM in assay [35]. In addition, the Ratio in assay [26] is recorded as 2.5; in assay [27] it was 26; in assay [28], 59; in assay [31], 80; in assay [33] it was more than 92; in assay [34], 28.

These data come from ChEMBL document CHEMBL1135309, “Tryptophanyl phosphoramidates as prodrugs of synadenol and its E-isomer: synthesis and biological activity” (2002).
